Drawing on paper PMC3982590 (Biochemistry, 2013), this text covers Kd for one compound.

In this test the target is T1, TtPFK (Thermus thermophilus, UniProt P21777, L313W).
T1 sequence (P21777 1-322 L313W): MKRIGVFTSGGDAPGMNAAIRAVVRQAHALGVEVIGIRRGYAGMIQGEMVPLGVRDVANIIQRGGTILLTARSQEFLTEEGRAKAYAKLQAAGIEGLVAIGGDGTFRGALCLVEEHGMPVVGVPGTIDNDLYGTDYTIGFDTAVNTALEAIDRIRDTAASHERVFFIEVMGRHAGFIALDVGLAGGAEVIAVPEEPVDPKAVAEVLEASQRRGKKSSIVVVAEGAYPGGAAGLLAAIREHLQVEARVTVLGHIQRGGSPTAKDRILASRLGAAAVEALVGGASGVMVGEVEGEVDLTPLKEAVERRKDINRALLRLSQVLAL
Nature of the test: intrinsic tryptophan fluorescence titration. In kind it is binding.

One may read the Kd as the equilibrium constant for the complex coming apart. Read a high Kd as lower affinity. The compound `C=C(OP(=O)(O)O)C(=O)O` [PEP] returned a Kd of 660 ± 60 nM.
